One assay deals with MMP9 (Q279R) (Homo sapiens, UniProt P14780, Q279R). As to the kind of experiment: MMP inhibition FRET assay, MMP-9. In kind it is biochemical. The settings on record: 390 MMP FRET Substrate I, room temperature, 30 minutes, duplicate. How it is done: (§1) Serial dilutions of a compound were prepared with 10% DMSO and 5 μL of the dilution was added to a 50 μL reaction so that the final concentration of DMSO is 1% in all of reactions.
(§2) The enzymes were diluted in 50 mM HEPES buffer pH 7.4, 10 mM CaCl2, 0.05% Brij-35, and 1 mM APMA for activation at 37° C. for 2 hours.
(§3) […] activity assays were performed in duplicate at each concentration. The fluorescent intensity data were analyzed using the computer software, Graphpad Prism. In the absence of the compound, the fluorescent intensity (Ft) in each data set was defined as 100% activity. In the absence of enzyme, the fluorescent intensity (Fb) in each data set was defined as 0% activity. The percent activity in the presence of each compound was calculated according to the following equation: %activity=(F−Fb)/(Ft−Fb), where F=the fluorescent intensity in the presence of the compound.
(§4) The values of % activity versus a series of compound concentrations were then plotted using non-linear regression analysis of Sigmoidal dose-response curve generated with the equation Y=B+(T−B)/1+10^((Log EC50−X)×Hill Slope), where Y=percent activity, B=minimum percent activity, T=maximum percent activity, X=logarithm of compound and Hill Slope=slope factor or Hill coefficient. The IC50 value was determined by the concentration causing a half-maximal percent activity.

The target in the next assay is T1, MMP-2 (Homo sapiens, UniProt P08253).
T1 sequence (P08253 110-660): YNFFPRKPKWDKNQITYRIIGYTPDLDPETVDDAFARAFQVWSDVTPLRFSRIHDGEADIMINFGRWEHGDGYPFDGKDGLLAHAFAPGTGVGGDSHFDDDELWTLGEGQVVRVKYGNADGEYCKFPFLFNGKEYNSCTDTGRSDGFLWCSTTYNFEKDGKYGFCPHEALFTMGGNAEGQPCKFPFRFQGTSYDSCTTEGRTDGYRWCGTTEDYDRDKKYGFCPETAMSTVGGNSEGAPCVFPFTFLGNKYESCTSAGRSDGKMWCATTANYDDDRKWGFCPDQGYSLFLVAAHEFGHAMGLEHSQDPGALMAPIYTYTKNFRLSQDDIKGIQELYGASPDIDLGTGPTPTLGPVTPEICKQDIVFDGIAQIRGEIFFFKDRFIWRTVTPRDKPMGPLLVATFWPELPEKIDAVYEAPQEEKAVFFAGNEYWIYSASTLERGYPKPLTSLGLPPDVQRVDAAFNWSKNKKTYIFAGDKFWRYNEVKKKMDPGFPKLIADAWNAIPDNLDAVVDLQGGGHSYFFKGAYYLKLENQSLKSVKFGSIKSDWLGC
As to the kind of experiment: MMP inhibition FRET assay, MMP-2. Type of assay: biochemical. Conditions: 390 MMP FRET Substrate I, room temperature, 30 minutes, duplicate; read-out: IC50 MMP2. Here is the method: as §1, §2, §3, §4

MMP9 (Q279R), sequence (P14780 107-707 Q279R limits assumed): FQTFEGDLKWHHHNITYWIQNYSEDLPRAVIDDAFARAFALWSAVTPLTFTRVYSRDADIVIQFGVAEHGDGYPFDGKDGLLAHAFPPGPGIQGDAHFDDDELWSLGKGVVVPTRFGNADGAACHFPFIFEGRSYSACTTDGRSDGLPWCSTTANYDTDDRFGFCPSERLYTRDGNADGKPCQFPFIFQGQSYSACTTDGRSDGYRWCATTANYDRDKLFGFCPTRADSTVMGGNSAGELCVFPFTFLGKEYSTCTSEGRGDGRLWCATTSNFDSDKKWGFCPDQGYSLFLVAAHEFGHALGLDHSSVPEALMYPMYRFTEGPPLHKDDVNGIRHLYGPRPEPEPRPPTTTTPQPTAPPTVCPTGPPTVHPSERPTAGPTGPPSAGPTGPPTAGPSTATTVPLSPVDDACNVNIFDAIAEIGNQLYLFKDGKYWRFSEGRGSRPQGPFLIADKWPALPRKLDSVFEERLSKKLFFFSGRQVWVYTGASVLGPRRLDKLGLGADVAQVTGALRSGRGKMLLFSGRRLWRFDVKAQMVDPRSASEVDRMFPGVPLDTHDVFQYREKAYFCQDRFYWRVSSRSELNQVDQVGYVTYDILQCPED

As a reminder, the IC50 is the concentration needed to halve the response being measured. `COc1ccc(S(=O)(=O)N(CC(=O)NO)CC(C)C)cc1` [NNGH, N-Isobutyl-N-(4-methoxyphenylsulfonyl)glycyl Hydroxamic Acid]: the IC50 on MMP9 (Q279R) and on MMP-2 was 4 nM throughout.
